# Reference: ChEMBL document CHEMBL5649169 (ChemMedChem, 2018)
# Legend:
# [1] = target: Tektin-1 (Homo sapiens) (UniProt Q969V4); note: assay method not described here
# [2] = target: Cytoplasmic FMR1-interacting protein 2 (Homo sapiens) (UniProt Q96F07); note: assay method not described here
# [3] = target: Serine hydrolase BPHL (Homo sapiens) (UniProt Q86WA6); note: assay method not described here
# [4] = target: Ragulator complex protein LAMTOR3 (Homo sapiens) (UniProt Q9UHA4); note: assay method not described here
# [5] = target: Bone morphogenetic protein receptor type-1A (Homo sapiens) (UniProt P36894); note: assay method not described here
# [6] = target: Tubulin beta-4A chain (Homo sapiens) (UniProt P04350); note: assay method not described here
# [7] = species on record: Homo sapiens; note: assay method not described here
# [8] = target: Nucleolar protein 58 (Homo sapiens) (UniProt Q9Y2X3); note: assay method not described here
# Chain of Nucleolar protein 58 (Homo sapiens) (Q9Y2X3 whole entry): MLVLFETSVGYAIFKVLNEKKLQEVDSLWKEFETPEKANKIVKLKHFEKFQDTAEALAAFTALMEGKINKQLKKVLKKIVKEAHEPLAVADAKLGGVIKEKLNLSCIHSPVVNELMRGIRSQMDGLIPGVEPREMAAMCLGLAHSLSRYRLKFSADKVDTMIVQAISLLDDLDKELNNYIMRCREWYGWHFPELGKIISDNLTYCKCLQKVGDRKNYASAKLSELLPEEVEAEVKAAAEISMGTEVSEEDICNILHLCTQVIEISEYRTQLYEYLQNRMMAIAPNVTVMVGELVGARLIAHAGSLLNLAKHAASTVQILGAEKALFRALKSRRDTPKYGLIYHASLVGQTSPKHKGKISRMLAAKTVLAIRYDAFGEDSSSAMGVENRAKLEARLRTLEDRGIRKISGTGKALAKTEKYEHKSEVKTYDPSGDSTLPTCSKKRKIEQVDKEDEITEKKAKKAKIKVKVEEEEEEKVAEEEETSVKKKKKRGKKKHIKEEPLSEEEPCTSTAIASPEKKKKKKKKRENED
# [9] = target: Choline/ethanolaminephosphotransferase 1 (Homo sapiens) (UniProt Q9Y6K0); note: assay method not described here
# [10] = target: Cyclin-I (Homo sapiens) (UniProt Q14094); note: assay method not described here
# [11] = target: ATP-dependent RNA helicase DHX29 (Homo sapiens) (UniProt Q7Z478); note: assay method not described here
# [12] = target: Histone H1.3 (Homo sapiens) (UniProt P16402); note: assay method not described here
# Chain of Histone H1.3 (Homo sapiens) (P16402 whole entry, the tested form may be a part): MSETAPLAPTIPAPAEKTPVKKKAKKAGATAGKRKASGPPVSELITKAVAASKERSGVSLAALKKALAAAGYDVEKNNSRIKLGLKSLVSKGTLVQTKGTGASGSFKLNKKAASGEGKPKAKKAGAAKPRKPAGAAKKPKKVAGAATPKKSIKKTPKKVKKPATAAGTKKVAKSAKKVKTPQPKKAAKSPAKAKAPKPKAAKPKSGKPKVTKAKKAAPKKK
# [13] = target: Zinc finger protein with KRAB and SCAN domains 2 (Homo sapiens) (UniProt Q63HK3); note: assay method not described here
# [14] = target: Very long chain fatty acid elongase 5 (Homo sapiens) (UniProt Q9NYP7); note: assay method not described here
# [15] = target: Complement component 1 Q subcomponent-binding protein, mitochondrial (Homo sapiens) (UniProt Q07021); note: assay method not described here
# [16] = target: Serine/threonine-protein phosphatase 4 regulatory subunit 3A (Homo sapiens) (UniProt Q6IN85); note: assay method not described here
# [17] = target: DnaJ homolog subfamily C member 9 (Homo sapiens) (UniProt Q8WXX5); note: assay method not described here
# [18] = species on record: Homo sapiens; remark: listed apart in the source; note: assay method not described here
# [19] = target: Sec1 family domain-containing protein 1 (Homo sapiens) (UniProt Q8WVM8); note: assay method not described here
# Chain of Sec1 family domain-containing protein 1 (Homo sapiens) (Q8WVM8 2-642 limits assumed): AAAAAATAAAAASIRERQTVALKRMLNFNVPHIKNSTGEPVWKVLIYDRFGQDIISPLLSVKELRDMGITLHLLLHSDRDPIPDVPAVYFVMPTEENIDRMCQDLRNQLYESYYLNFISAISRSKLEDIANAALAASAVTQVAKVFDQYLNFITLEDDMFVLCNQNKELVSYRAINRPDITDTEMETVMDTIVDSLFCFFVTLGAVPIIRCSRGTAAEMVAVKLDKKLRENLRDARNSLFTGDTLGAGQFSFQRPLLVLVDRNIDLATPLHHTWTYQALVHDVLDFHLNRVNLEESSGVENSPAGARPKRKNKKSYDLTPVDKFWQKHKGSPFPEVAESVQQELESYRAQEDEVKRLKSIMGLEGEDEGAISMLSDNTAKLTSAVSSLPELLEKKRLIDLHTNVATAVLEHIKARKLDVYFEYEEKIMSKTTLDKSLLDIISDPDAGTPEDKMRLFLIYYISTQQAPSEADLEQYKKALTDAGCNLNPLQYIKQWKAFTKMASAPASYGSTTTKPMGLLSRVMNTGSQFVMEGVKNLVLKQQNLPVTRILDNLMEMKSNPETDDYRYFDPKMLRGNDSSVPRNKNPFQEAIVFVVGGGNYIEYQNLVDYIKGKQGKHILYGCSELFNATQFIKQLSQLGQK
# [20] = target: Signal recognition particle 19 kDa protein (Homo sapiens) (UniProt P09132); note: assay method not described here
# [21] = target: ATP-dependent RNA helicase A (Homo sapiens) (UniProt Q08211); note: assay method not described here
# [22] = target: Activator of 90 kDa heat shock protein ATPase homolog 1 (Homo sapiens) (UniProt O95433); note: assay method not described here
# [23] = target: Oxysterol-binding protein-related protein 3 (Homo sapiens) (UniProt Q9H4L5); note: assay method not described here
# [24] = target: Ras suppressor protein 1 (Homo sapiens) (UniProt Q15404); note: assay method not described here
# [25] = target: MAP/microtubule affinity-regulating kinase 4 (Homo sapiens) (UniProt Q96L34); note: assay method not described here
# [26] = target: Aldo-keto reductase family 1 member D1 (Homo sapiens) (UniProt P51857); note: assay method not described here
# Chain of Aldo-keto reductase family 1 member D1 (Homo sapiens) (P51857 whole entry): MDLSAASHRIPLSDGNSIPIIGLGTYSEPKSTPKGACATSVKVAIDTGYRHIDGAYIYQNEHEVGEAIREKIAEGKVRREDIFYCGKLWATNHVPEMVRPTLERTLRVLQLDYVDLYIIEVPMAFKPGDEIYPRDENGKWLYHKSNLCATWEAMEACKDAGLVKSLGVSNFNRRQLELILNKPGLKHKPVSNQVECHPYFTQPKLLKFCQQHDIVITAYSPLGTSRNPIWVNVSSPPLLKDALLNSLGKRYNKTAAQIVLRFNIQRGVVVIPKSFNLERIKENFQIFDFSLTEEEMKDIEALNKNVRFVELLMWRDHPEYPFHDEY
# [27] = target: Phenylalanine--tRNA ligase beta subunit (Homo sapiens) (UniProt Q9NSD9); note: assay method not described here
# [28] = target: FAD synthase (Homo sapiens) (UniProt Q8NFF5); note: assay method not described here
# Chain of FAD synthase (Homo sapiens) (Q8NFF5 whole entry): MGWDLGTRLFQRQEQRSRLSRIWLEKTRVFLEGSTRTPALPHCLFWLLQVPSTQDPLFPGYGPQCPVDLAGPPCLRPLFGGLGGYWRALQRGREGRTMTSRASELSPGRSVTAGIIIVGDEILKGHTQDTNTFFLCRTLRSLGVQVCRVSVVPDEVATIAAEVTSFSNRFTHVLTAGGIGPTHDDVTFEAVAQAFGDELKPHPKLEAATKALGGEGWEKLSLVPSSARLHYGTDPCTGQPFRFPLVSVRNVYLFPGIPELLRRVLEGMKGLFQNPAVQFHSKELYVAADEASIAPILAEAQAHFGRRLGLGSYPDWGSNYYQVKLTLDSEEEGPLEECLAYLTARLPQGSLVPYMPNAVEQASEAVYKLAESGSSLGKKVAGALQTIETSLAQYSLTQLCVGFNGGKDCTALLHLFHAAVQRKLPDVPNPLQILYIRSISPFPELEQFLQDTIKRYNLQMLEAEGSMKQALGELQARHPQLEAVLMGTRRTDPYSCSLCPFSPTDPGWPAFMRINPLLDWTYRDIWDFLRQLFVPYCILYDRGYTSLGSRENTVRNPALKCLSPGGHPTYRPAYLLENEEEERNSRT
# [29] = target: Rho guanine nucleotide exchange factor 1 (Homo sapiens) (UniProt Q92888); note: assay method not described here
# [30] = target: Lysosomal alpha-mannosidase (Homo sapiens) (UniProt O00754); note: assay method not described here
# [31] = species on record: Homo sapiens; remark: listed apart in the source; note: assay method not described here
# [32] = target: Exportin-4 (Homo sapiens) (UniProt Q9C0E2); note: assay method not described here
# [33] = target: Cullin-4B (Homo sapiens) (UniProt Q13620); note: assay method not described here
# [34] = target: Ubiquitin carboxyl-terminal hydrolase 9X (Homo sapiens) (UniProt Q93008); note: assay method not described here
# [35] = target: Cyclin-dependent kinase 2 (Homo sapiens) (UniProt P24941); note: assay method not described here
# [36] = target: Sorting nexin-2 (Homo sapiens) (UniProt O60749); note: assay method not described here
# Chain of Sorting nexin-2 (Homo sapiens) (O60749 whole entry): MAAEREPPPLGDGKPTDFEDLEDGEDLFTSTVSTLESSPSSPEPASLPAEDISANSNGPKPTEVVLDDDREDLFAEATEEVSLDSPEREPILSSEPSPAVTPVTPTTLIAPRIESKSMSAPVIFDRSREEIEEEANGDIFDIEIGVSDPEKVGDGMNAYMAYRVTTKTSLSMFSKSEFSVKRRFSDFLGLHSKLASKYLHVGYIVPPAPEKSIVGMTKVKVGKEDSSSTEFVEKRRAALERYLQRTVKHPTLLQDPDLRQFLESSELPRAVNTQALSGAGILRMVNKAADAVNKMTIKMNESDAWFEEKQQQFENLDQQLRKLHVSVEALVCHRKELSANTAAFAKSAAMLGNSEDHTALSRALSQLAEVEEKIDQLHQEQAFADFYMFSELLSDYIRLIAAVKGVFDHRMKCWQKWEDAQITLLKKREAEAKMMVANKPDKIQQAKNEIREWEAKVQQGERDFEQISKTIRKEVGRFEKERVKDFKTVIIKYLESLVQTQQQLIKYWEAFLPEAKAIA
# [37] = target: Heterogeneous nuclear ribonucleoprotein R (Homo sapiens) (UniProt O43390); note: assay method not described here
# [38] = target: GDP-mannose 4,6 dehydratase (Homo sapiens) (UniProt O60547); note: assay method not described here
# [39] = target: Thioredoxin reductase 1, cytoplasmic (Homo sapiens) (UniProt Q16881); note: assay method not described here
# [40] = target: Calcyclin-binding protein (Homo sapiens) (UniProt Q9HB71); note: assay method not described here
# Chain of Calcyclin-binding protein (Homo sapiens) (Q9HB71 whole entry, the tested form may be a part): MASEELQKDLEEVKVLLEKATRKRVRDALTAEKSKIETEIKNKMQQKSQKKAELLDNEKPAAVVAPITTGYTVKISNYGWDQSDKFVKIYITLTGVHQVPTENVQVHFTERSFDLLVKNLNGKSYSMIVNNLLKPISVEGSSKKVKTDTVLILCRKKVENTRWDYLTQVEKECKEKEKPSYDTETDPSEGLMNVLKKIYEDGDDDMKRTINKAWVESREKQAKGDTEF
# [41] = target: T1, Ephrin type-A receptor 2 (Homo sapiens, UniProt P29317); test: Binding affinity to recombinant human EPHA2 (D596 to G900 residues) expressed in insect cells incubated for 30 mins by MST assay; set-up: species or system Insect cell
# T1 sequence (P29317 whole entry, the tested form may be a part): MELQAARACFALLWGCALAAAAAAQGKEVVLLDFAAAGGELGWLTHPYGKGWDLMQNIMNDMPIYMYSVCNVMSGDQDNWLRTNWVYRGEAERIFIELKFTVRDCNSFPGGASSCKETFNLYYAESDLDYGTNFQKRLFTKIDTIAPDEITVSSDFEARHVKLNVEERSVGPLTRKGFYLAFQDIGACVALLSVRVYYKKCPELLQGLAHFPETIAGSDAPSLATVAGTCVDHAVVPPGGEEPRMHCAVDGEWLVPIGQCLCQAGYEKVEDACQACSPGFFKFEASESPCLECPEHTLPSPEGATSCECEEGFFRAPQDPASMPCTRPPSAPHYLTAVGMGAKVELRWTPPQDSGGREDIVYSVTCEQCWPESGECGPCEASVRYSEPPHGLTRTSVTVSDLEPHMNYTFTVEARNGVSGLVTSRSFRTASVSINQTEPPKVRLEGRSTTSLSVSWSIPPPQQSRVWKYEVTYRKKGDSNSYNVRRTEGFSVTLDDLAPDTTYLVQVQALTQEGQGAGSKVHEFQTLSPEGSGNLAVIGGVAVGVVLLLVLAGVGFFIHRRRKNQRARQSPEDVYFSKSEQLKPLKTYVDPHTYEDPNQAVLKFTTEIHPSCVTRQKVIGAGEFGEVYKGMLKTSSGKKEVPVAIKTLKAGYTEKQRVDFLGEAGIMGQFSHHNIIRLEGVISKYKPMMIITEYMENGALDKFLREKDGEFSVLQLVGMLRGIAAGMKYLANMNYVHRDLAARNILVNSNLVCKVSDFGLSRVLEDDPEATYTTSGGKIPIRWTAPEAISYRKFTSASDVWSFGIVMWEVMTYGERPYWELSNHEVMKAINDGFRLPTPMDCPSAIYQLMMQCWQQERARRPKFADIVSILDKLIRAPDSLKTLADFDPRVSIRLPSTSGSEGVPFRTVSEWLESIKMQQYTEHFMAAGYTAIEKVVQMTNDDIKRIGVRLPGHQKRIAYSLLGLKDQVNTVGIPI
# [42] = target: T1, Ephrin type-A receptor 2; test: Inhibition of Nano Luc-fused full length C-terminal EPHA2 (unknown origin) expressed in HEK293T cells using NanoGlo as substrate incubated for 2 hrs in presence of tracer by NanoBRET assay; format: cell-based
# [43] = target: Small ribosomal subunit protein eS28 (Homo sapiens) (UniProt P62857); note: assay method not described here
# [44] = target: N-acetylneuraminate-9-phosphate synthase (Homo sapiens) (UniProt Q9NR45); note: assay method not described here
# [45] = target: EKC/KEOPS complex subunit TPRKB (Homo sapiens) (UniProt Q9Y3C4); note: assay method not described here
# [46] = target: Methylcrotonoyl-CoA carboxylase beta chain, mitochondrial (Homo sapiens) (UniProt Q9HCC0); note: assay method not described here
# Chain of Methylcrotonoyl-CoA carboxylase beta chain, mitochondrial (Homo sapiens) (Q9HCC0 whole entry): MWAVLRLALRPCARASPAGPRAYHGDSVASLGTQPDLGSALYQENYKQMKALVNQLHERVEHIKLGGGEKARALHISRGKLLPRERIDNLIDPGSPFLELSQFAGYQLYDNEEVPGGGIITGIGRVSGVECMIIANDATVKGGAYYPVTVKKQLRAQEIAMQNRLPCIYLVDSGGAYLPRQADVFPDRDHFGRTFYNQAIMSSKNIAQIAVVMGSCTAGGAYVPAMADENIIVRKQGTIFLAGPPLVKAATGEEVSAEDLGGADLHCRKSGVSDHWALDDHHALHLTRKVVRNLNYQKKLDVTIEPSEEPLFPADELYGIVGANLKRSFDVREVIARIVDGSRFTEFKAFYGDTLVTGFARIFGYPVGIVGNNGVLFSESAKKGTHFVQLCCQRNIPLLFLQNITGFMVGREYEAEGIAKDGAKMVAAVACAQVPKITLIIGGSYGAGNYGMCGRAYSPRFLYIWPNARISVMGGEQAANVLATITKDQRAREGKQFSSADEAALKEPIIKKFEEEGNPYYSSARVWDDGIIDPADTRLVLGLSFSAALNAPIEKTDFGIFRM
# Chain of Serine hydrolase BPHL (Homo sapiens) (Q86WA6 whole entry): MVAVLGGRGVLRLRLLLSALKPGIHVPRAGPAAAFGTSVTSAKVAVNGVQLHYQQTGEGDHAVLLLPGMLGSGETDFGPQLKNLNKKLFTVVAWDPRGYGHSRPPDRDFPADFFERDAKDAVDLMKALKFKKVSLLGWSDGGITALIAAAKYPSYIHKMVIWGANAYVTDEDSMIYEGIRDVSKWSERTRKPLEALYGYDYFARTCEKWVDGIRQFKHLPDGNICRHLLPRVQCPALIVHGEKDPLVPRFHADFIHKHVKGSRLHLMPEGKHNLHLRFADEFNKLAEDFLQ
smiles,measurement,setting,value
Cc1ccc(C(=O)Nc2cccc(C(F)(F)F)c2)cc1Nc1nc(-c2cccnc2)nc2c1cnn2C,ED50,[1],44 µM
same,ED50,[2],6.95 µM
same,ED50,[3],13.2 µM
same,ED50,[4],0.816 µM
same,ED50,[5],0.99 µM
same,ED50,[6],0.00634 µM
same,ED50,[7],1590 µM
same,ED50,[8],0.0287 µM
same,ED50,[9],0.00397 µM
same,ED50,[10],26.5 µM
same,ED50,[11],15.3 µM
same,ED50,[12],10.4 µM
same,ED50,[13],0.932 µM
same,ED50,[14],2.87 µM
same,ED50,[15],0.0348 µM
same,ED50,[16],0.033 µM
same,ED50,[17],8.8 µM
same,ED50,[18],4.42 µM
same,ED50,[19],0.171 µM
same,ED50,[20],10.1 µM
same,ED50,[21],0.112 µM
same,ED50,[22],44.8 µM
same,ED50,[23],0.946 µM
same,ED50,[24],93.4 µM
same,ED50,[25],0.0986 µM
same,ED50,[26],0.0719 µM
same,ED50,[27],0.0971 µM
same,ED50,[28],0.998 µM
same,ED50,[29],1.7 µM
same,ED50,[30],83 µM
same,ED50,[31],0.059 µM
same,ED50,[32],0.00594 µM
same,ED50,[33],1.76 µM
same,ED50,[34],0.0603 µM
same,ED50,[35],0.0475 µM
same,ED50,[36],0.000171 µM
Cc1ccc(C(=O)Nc2cccc(C(F)(F)F)c2)cc1Nc1nc(-c2cccnc2)nc2nn(C)cc12,ED50,[37],0.00823 µM
same,ED50,[38],6770 µM
same,ED50,[39],0.19 µM
same,ED50,[40],0.506 µM
same,Kd,[41],0.073 µM
same,IC50,[42],0.163 µM
same,ED50,[43],0.0595 µM
same,ED50,[44],0.09 µM
same,ED50,[45],0.55 µM
same,ED50,[46],0.102 µM
